“Also recorded” adds a separate entry of the source.

This note sets out measurements from patent US20250305004A1, “ENHANCING GENE TARGETING EFFICIENCY IN HUMAN CELLS WITH DNA-PK INHIBITOR TREATMENT” (The Board of Trustees of the Leland Stanford Junior …, priority 2022, published 2025).

Series [1] concerns CCR5 locus in PSCs. Kind of series: Single cell cloning of PSCs gene targeted at CCR5 locus. Type of series: cell-based, human. How it is done: Allelic gene targeting efficiency was unaffected by pretreatment with AZD7648 with or without post treatment when compared to the corresponding controls.
For single cell cloning, gene targeted PSCs were plated at a density of 250 cells per well of a 6-well plate in mTeSR1 medium supplemented with 1× CloneR™2 ([…] technologies, cat: 100-0691) and incubated at 37° C. for 2 days. After 2 days, medium was switched to fresh mTeSR1 medium supplemented with 1× CloneR™2. 2 days later, the cells were switched to and maintained in mTeSR1 medium with daily media changes. At D7-D10, single cell colonies were picked by scraping and were then propagated individually. Gene targeting was assessed in single cell clones by ddPCR as mentioned above and by PCR amplifying the region spanning the knock-in to determine the frequency of mono-, bi-allelic and non-targeted clones.

Series [2] deals with CCR5 locus in PSCs. Kind of series: RNP/AAV6 gene targeting at CCR5 locus, knock-in of two stop codons, PSCs. Type of series: cell-based, human. Particulars: low activity gRNAs sg1 and sg4; 0.5 μM. How it is done: (§1) PSC culture and genome editing. […] For each nucleofection, RNP complex was prepared with 5 μg of Cas9 protein and 2 μg of gRNA and incubated for 15 mins at room temperature. PSCs were dissociated into single cells using Accutase (Innovative Cell Technologies, cat: AT104). […] Resuspended cells were added to one well of a 16-well Nucleocuvette Strip (Lonza) and nucleofection was performed in the 4D nucleofector (Lonza) using the program, CA137. Nucleofected PSCs were plated in mTeSR1 medium supplemented with 10 μM of Y27632 at a density of 100,000 cells per well in 48-well plate, AAV6 vector and DNA-PKcs inhibitors were added to the medium at indicated concentrations. […] From the following day, PSCs were cultured in mTeSR1 without Y27632. Gene targeting efficiency was analyzed at 4-6 days post-editing.
ICE analysis for quantification of gene editing. ICE CRISPR analysis tool (Synthego) was used to determine the allelic distribution of WT, INDEL and HDR frequencies for gene targeting involving knock-in of short sequences and for calculating the frequency of WT and INDEL alleles for gene targeting involving knock-in of multi-kb sequences. […] Following PCR, the amplicons were detected on agarose gel and purified from the gel using GeneJet Gel Extraction Kit (Thermo Fisher Scientific, cat: K0692). […]

A further series deals with CCR5 locus in HSPCs. Kind of series: RNP/AAV6 gene targeting at CCR5 locus in CD34+ HSPCs. Type of series: cell-based, human. Particulars: two stop codons; sg1 and sg4. How it is done:
ddPCR analysis of targeted integration. Gene targeting efficiency for the knock-in of multi-kb sequences was measured through digital droplet PCR (ddPCR) analysis. For this, genomic DNA was extracted from cells using the QuickExtract™ DNA Extraction Solution (QE) (Lucigen, Cat: QE09050). Pellets of 100,000 to 200,000 cells were resuspended in 40 to 50 μl of QE solution. This cell suspension was incubated at 65° C. for 6 mins and then 100° C. for 10 mins. The quick extracted genomic DNA was digested with either BamHI-HF or HindIII-HF (NEB) enzymes at 37° C. for 1 to 2 hours. […] 40 μl of the generated droplet sample was used for the PCR with the following cycle: 95° C. for 10 mins, 50 cycles of 94° C. for 30 secs, 60° C. for 30 secs and 72° C. for 2 mins and 98° C. for 10 mins. After PCR, the droplets were analyzed using the QX200 Droplet Digital PCR reader (Biorad) and Quantasoft software was used to determine the number of copies of the target and reference DNA in the droplets. The allelic gene targeting efficiency was calculated as the percentage of target DNA copies relative to that of the reference. […]
(§2) ICE analysis for quantification of gene editing. […] Following PCR, the amplicons were detected on agarose gel and purified from the gel using GeneJet Gel Extraction Kit (Thermo Fisher Scientific, cat: K0692). […]

The next series concerns T cells. Nature of the series: Viable cell count of CCR5 gene targeted T cells. The class given is cell-based, human. The procedure: (FIG. 34d). Next, we tested the effect of compound treatment when titrating down the AAV6 donor amounts for gene targeting at the CCR5 locus. […] For this, we assessed the CD19-CAR knock-in at the TRAC gene locus in T cells using a previously reported gene editing strategy^87 (FIG. 14c).
Cell viability measurement. MTT assay was used for measuring the gene edited PSC viability. […] After this incubation, MTT was removed, and cells were lysed using 100 μl of lysis buffer (0.1N HCl and 0.5% SDS in isopropanol). After lysis, absorbance was measured at 570 nm with 650 nm as the reference using a SpectraMax M3 plate reader (Molecular devices). The absorbance values were used to calculate the cell viability of gene edited cells as a percentage relative to the mock cells. […] Viable cell counts were represented as percentage relative to the mock or untreated cells as indicated.

In another series the test system is HBB locus in HSPCs. Kind of series: Editing of SCD mutation at HBB locus in HSPCs (AAV6 or ssODN donor). Type of series: cell-based, human. From the text:
ICE analysis for quantification of gene editing.
CD34+ HSPC culture and genome editing.

The test system of another series is PI3K family of kinases. Nature of the series: Western blot, phosphorylation of AKT (Ser473) by PI3K family kinases in PSC. Type of series: cell-based, human. Particulars: 2 h.
The next series concerns HBB locus in PSCs. Kind of series: RNP/AAV6 gene targeting at HBB locus in PSCs. The class given is cell-based, human. The conditions noted are these: UBC-GFP-bGHpA knock-in; 0.5 μM. How it is done:
(§3) Gene targeting efficiency was measured by droplet digital PCR (ddPCR) and flow cytometry (for GFP) to measure the allelic targeting efficiency (FIG. 2B) and percentage of targeted cells (FIG. 2C) respectively. […] The treatment was carried out for 24 hours post gene targeting and the efficiency was calculated 1 week post gene targeting using ddPCR analysis.
(§4) First, we tested the treatment for editing the sickle cell disease (SCD) and cystic fibrosis (CF) mutations at HBB and CFTR loci respectively using the previously described Cas9 RNP and AAV6 donor reagents in WT PSC^71-73 (FIG. 19a-d).
PSC culture and genome editing. […] Gene targeting efficiency was analyzed at 4-6 days post-editing.
(§5) ddPCR analysis of targeted integration. Gene targeting efficiency for the knock-in of multi-kb sequences was measured through digital droplet PCR (ddPCR) analysis. […] After PCR, the droplets were analyzed using the QX200 Droplet Digital PCR reader (Biorad) and Quantasoft software was used to determine the number of copies of the target and reference DNA in the droplets. The allelic gene targeting efficiency was calculated as the percentage of target DNA copies relative to that of the reference. […]
as §2

The next series concerns HBA1 locus in PSCs. Nature of the series: RNP/AAV6 gene targeting / gene replacement at HBA1 locus in PSCs. The class given is cell-based, human. The conditions noted are these: 0.5 μM. How it is done: as §3, §4, §1, §5, §2
In a further series the test system is human primary cells. Kind of series: Gene targeting across different genomic loci and primary cell types (summary statements). The class given is cell-based. The conditions noted are these: in some examples. From the text: Nuclease-based genome editing can result in either site-specific insertions/deletions (INDELs) or targeted integrations depending on which pathway of natural DNA double-strand break repair is harnessed: non-homologous end-joining (NHEJ), microhomology mediated end-joining (MMEJ) or homology-directed repair (HDR).

Series [3] concerns LT-HSC and MPP populations. Kind of series: Gene targeting at CCR5 locus in FACS sorted LT-HSC and MPP. Type of series: cell-based, human. The conditions noted are these: flow cytometry for GFP; 0.5 μM. Background: Flow cytometry measures light scatter and fluorescence of single cells or particles in a stream.

In the case of `Cc1cc2ncnn2cc1Nc1ncc2c(n1)n(C1CCOCC1)c(=O)n2C` [AZD7648, 7-methyl-2-((7-methyl-[1,2,4]triazolo[l,5-a]pyridin-6-yl)amino)-9-(tetrahydro-2H-pyran-4-yl)-7,9-dihydro-8H-purin-8-one], the “clones with bi-allelic knock-in” value stood at 60% with CCR5 locus in PSCs [1] (0.1 μM) and 90% in the series with CCR5 locus in PSCs [1] (0.5 μM, untreated 30%). Also, the “INDELs after gene targeting” value was “INDEL-free” in the series on CCR5 locus in PSCs [2]; “INDEL-free HDR” with CCR5 locus in HSPCs; “almost no INDELs; also recorded: nearly INDEL-free levels” in the series with HBB locus in HSPCs (AAV6 donor, 0.5 μM). Moreover, in the series with T cells (0.5 μM, different AAV6 MOIs), the viable cell count result is on record as “very little drop in viable cell count”. The “viable cell count vs mock and untreated controls” value in the series on T cells (72 h post-gene targeting, different concentrations) is recorded as “minimal drop in viable cell count”. The compound also gave a gene targeting frequency with HBB locus in HSPCs (ssODN donor […], AZD7648 0.5 μM, untreated 49%) of 65%. The “phosphorylation of AKT (Ser473)” value in the series with PI3K family of kinases is “did not affect the phosphorylation of AKT”. Also, the “effect on gene targeting vs untreated” value with HBB locus in PSCs is “enhanced the gene targeting significantly; also recorded: significant improvement”; in the series on HBA1 locus in PSCs, “enhanced the gene targeting significantly”. In addition, the “increase in HDR” value in the series on human primary cells is reported as “up to 50 fold”. In addition, in series [3], the “improvement of frequency of gene targeted cells” value is recorded as “more than 2.5 fold”.
